Source: ChEMBL document CHEMBL1681726, “Discovery of orally available tetrahydroquinoline-based glucocorticoid receptor agonists” (Bioorg Med Chem Lett, 2011)

Key:
[1] = Metabolic stability in human liver microsomes by HPLC-MS/MS; format: ADME, Microsome
Glucocorticoid receptor [2] = molecular target: T1, Glucocorticoid receptor (Homo sapiens, UniProt P04150); assay: Agonist activity at GR expressed in IL-1beta- and TNFalpha-stimulated HepG2 cells assessed as inhibition of NFKB- or AP-1 mediated E-selectin transcription by luciferase reporter gene assay relative to Dexamethasone; format: functional, cell-based
T1 sequence (P04150 whole entry): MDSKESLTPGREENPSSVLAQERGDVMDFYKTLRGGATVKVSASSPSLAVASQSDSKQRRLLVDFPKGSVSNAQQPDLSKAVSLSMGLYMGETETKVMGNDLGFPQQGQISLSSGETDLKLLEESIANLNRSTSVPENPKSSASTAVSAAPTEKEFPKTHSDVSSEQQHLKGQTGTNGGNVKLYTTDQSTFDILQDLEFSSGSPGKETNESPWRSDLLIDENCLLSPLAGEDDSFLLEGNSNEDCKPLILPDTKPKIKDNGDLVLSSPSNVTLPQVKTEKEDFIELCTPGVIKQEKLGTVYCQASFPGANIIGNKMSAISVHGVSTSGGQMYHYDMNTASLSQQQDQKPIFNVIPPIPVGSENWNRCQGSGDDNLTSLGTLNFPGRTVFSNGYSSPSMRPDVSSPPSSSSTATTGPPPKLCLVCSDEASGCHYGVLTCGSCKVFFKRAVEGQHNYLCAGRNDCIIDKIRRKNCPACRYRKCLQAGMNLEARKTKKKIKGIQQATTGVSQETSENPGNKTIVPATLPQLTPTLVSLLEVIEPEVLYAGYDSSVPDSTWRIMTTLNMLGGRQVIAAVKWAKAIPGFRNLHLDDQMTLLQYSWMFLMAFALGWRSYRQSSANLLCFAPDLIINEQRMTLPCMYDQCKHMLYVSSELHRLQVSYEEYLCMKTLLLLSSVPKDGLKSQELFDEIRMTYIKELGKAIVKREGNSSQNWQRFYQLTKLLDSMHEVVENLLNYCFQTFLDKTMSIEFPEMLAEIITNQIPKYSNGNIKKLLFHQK

Glucocorticoid receptor [3] = molecular target: T1, Glucocorticoid receptor; assay: Agonist activity at GR expressed in african green monkey CV1 cells transfected with luciferase gene linked to MMTV promoter assessed as induction of luciferase transactivation activity relative to Dexamethasone; format: functional, cell-based, CV-1
[4] = Metabolic stability in CD-1 […] liver microsomes by HPLC-MS/MS; format: ADME, Microsome; conditions: CD-1, liver microsomes
[5] = Cmax in Sprague-Dawley rat at 30 mg/kg, po; format: ADME, organism-based; set-up: dose 30 mg/kg, route oral; conditions: in vivo
[6] = Selectivity ratio of Ki for GR to Ki for AR
[7] = molecular target: T2, Mineralocorticoid receptor (Homo sapiens, UniProt P08235); assay: Binding affinity to MR
T2 sequence (P08235 whole entry): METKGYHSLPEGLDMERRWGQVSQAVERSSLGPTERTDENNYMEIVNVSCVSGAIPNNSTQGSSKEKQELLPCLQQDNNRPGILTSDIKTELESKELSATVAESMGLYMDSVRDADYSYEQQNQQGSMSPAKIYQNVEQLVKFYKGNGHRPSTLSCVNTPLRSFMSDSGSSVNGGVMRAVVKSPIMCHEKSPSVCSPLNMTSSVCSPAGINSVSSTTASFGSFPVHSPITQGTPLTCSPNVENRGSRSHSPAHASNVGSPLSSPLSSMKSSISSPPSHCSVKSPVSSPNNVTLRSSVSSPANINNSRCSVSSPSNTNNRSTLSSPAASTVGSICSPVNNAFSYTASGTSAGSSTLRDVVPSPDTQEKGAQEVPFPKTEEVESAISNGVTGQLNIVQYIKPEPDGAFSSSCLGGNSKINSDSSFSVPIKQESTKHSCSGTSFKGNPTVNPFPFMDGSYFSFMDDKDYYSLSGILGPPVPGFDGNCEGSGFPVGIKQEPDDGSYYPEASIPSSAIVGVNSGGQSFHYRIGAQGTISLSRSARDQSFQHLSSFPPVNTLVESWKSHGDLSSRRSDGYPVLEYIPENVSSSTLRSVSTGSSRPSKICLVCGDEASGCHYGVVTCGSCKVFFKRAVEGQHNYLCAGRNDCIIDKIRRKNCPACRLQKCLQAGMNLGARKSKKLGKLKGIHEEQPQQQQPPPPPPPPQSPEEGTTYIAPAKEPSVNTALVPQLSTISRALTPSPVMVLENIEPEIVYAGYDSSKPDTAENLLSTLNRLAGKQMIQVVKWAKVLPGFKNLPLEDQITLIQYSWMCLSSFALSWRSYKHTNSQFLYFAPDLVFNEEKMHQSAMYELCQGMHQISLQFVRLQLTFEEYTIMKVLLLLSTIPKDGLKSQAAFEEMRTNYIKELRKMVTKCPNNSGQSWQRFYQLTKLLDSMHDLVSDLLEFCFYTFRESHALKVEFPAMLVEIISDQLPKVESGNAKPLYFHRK

## C[C@H]1c2c(cc(F)c(-c3cccc4cc[nH]c34)c2F)NC(C)(C)[C@@H]1O (racemic)
[1]
  half-life: 48 min
Glucocorticoid receptor [2]
  IC50: 1.5 nM
Glucocorticoid receptor [3]
  EC50: 0.6 nM
[4]
  half-life: 30 min
[5]
  Cmax: 3600 ng/mL
[6]
  Ratio Ki: > 500
[7]
  Ki: 1520 nM
